Like-named read-outs stand apart in the source and are kept apart here. Marks after values point to notes of the source that are not given here.
Experiments:
Format in all cases: biochemical
human recombinant MAO-A = target: T1, human recombinant MAO-A (Homo sapiens, UniProt P21397); assay: MAO-GLO luminescence assay of MAO-A catalytic activity; details: for remaining activity at 1 µM: read-out: MAO-A residual activity
T1 sequence (P21397 1-527): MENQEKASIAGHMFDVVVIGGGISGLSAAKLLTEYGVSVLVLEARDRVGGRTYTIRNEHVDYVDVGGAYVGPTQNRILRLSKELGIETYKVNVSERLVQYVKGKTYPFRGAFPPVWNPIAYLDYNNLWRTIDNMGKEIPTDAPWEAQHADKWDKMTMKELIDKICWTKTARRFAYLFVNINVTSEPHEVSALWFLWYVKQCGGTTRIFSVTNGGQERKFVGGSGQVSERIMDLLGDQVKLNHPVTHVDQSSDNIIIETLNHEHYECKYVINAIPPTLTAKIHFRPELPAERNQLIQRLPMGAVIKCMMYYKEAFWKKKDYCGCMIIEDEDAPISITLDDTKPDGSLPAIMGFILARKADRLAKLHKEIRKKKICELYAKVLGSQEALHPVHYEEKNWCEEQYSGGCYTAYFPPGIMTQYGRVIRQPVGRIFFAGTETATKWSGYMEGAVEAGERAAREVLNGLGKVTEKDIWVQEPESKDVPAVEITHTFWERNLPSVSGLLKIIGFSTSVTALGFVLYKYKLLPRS
Procedure: (§1) Optimization of the compounds, however, aimed predominantly at elimination of MAO-A-inhibitory activity while keeping DYRK1A inhibitory potency, and not at achieving high selectivity for DYRK1A over CLK1. The tests were performed as described by us before in detail. Due to the very large number of test compounds (more than 60), a first screening was performed at a single inhibitor concentration of 1 µM.
(§2) Inhibitors were dissolved in DMSO at a concentration of 10 mM and stored at […]. Working solutions were prepared to achieve a final concentration of 1 µM in the enzyme assays.
Catalytic activity of monoamine oxidase A (MAO-A) was measured by using the luminescence-based MAO-GLO^TM Assay from Promega. Recombinant MAO-A converts a luminogenic MAO substrate into luciferin, which is, in turn, luminometrically detected in a luciferase reaction. The amount of light produced is directly proportional to MAO activity. […] Inhibitory effects of the tested compounds were calculated relative to the activity of control reactions that were run in the absence of inhibitors.

[1] = target: T2, GST-DYRK1A-ΔC (amino acids 1–499 of rat DYRK1A) (Rattus norvegicus, UniProt Q63470); assay: Kinase-GLO luminescent assay of DYRK1A catalytic activity; details: for remaining activity at 1 µM: read-out: DYRK1A residual activity
T2 construct: containing amino acids 1–499 of rat DYRK1A; made in house; host or cells: E. coli
Procedure: as §1, §2
(§3) Recombinant kinases were purified from E. coli as GST (glutathione S-transferase) fusion constructs by affinity adsorption to glutathione-Sepharose. […] Catalytic activity of the kinases was measured with the help of the Kinase-GLO^TM Luminescent Assay from Promega. Assays were performed in a total volume of 10 μL in kinase buffer (25 mM Hepes pH 7.4, 0.5 mM DTT, 5 mM MgCl2, 5 μM ATP) with appropriate peptide substrates (20 μM DYRKtide for the DYRKs and 100 μM DYRKtide for HIPK2, […]; or 100 μM RS peptide for CLK1, […]). Kinases amounts in the assays were adjusted so that approximately 90% of the ATP in the assay was consumed in control samples without inhibitor. Kinase reactions were incubated at room temperature for 30 min before 10 μL Kinase-GLO reagent was added for luminometric measurement of the ATP that was not consumed by the kinases. After incubation at room temperature for an additional 10 min, luminescence was recorded for 1 s (Berthold Orion Microplate Luminometer). ATP consumption in the control samples without inhibitor was set as 100% catalytic activity, and the inhibitory effects of the test compounds were calculated relative to this value.

[2] = target: T3, GST-CLK1cat (amino acids 141–484 of human CLK1) (Homo sapiens, UniProt P49759); assay: Kinase-GLO luminescent assay of CLK1 catalytic activity; details: 1 µM inhibitor concentration, residual activity relative to control without inhibitor; for remaining activity at 1 µM: read-out: CLK1 residual activity
T3 construct: containing amino acids 141–484 of human CLK1; made in house; host or cells: E. coli
Procedure: as §1, §2, §3

[3] = 1 µM inhibitor concentration, residual activity relative to control without inhibitor

T3 sequence (P49759 141-484): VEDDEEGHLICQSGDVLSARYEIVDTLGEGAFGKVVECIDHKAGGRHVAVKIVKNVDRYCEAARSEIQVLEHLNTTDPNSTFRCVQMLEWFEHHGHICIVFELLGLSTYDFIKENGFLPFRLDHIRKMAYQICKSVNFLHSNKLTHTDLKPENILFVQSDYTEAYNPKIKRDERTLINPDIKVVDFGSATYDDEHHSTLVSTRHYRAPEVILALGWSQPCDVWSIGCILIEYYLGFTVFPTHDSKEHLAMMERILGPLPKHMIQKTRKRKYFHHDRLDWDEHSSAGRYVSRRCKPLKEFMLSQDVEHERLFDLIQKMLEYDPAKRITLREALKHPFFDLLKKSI

Compound | remaining activity at 1 µM (human recombinant MAO-A; [3]) [%] | remaining activity at 1 µM [1, 3] [%] | remaining activity at 1 µM [2] [%] | also measured
harmol [reference compound] | – | – | – | MAO-A residual activity (human recombinant MAO-A; [3]): 120%; DYRK1A residual activity [1, 3]: 18%; CLK1 residual activity [2]: 6 *** %
COc1ccc2c3ccnc(C)c3n(CC(=O)O)c2c1 [AnnH25, 2-(7-Methoxy-1-methyl-9H-pyrido[3,4-b]indol-9-yl)acetic acid] | 6 | – | 34 | –
COc1ccc2c3ccnc(C)c3n(CCN(C)C)c2c1 [AnnH16, [2-(7-Methoxy-1-methyl-9H-pyrido[3,4-b]indol-9-yl)-ethyl]-dimethylamine] | 103 | 107 | – | –
CCCCn1c2cc(OC)ccc2c2ccnc(C)c21 [AnnH3, 9-Butyl-7-methoxy-1-methyl-9H-pyrido[3,4-b]indole] | 10 | – | 24 | –
COc1c(Br)cc2c([nH]c3c(C)nc(Br)cc32)c1Br [AnnH5_4, 3,6,8-tribromoharmine] | – | 126 | – | –
7-Methoxy-1-methyl-9-(prop-2-yn-1-yl)-9H-pyrido[3,4-b]indole [AnnH70] | – | – | – | MAO-A residual activity (human recombinant MAO-A; [3]): 18%; DYRK1A residual activity [1, 3]: 6%; CLK1 residual activity [2]: 17 *** %
COc1ccc2c(c1)[nH]c1c(=O)[nH]ccc12 [AnnH20, 7-Methoxy-2,9-dihydro-1H-pyrido[3,4-b]indol-1-one] | – | – | – | remaining activity at 1 µM (human recombinant MAO-A): 127%
Cc1nccc2c1[nH]c1ccccc12 [harmane, reference compound] | – | – | – | remaining activity at 1 µM (human recombinant MAO-A): 18%; remaining activity at 1 µM [1]: 97%
COc1ccc2c3ccnc(C)c3n(C/C=C/c3ccccc3)c2c1 [AnnH22, 7-Methoxy-1-methyl-9-((E)-3-phenylallyl)-9H-pyrido[3,4-b]indole] | 39 | 3 | 15 | –
COc1ccc2c3ccnc(C)c3n(CC(=O)OC(C)C)c2c1 [AnnH27, Isopropyl 2-(7-methoxy-1-methyl-9H-pyrido[3,4-b]indol-9-yl)acetate] | 72 | 4 | 79 | –
COc1ccc2c(c1)[nH]c1cnccc12 [norharmine (AnnH90), norharmine] | 45 | 36 | 26 | –
COc1cc2[nH]c3c(C)nccc3c2cc1Br [AnnH5_2] | 7 | 88 | – | –
COc1ccc2c3ccnc(C)c3n(C)c2c1 [AnnH1] | 2 | – | 6 | –
COc1ccc2c3ccnc(C)c3n(Cc3ccccc3)c2c1 [AnnH4, 9-Benzyl-7-methoxy-1-methyl-9H-pyrido[3,4-b]indole] | 80 | 88 | – | –
COc1cc2[nH]c3c(C)nccc3c2cc1Cl [AnnH6_3_2, 6-chloro-7-methoxy-1-methyl-9H-pyrido[3,4-b]indole] | 9 | 92 | – | –
COc1ccc2c3ccnc(C)c3n(CC(N)=O)c2c1 [AnnH28, 2-(7-Methoxy-1-methyl-9H-pyrido[3,4-b]indol-9-yl)-N-acetamide] | 131 | – | 89 | –
COc1c(Br)cc2c([nH]c3c(C)nccc32)c1Br [AnnH5_1] | 70 | 101 | – | –
COc1ccc2c([nH]c3c(C)nccc32)c1Br [AnnH5_3, 8-bromo-7-methoxy-1-methyl-9H-pyrido[3,4-b]indole] | 8 | 95 | – | –
COc1ccc2c3c([nH]c2c1)C(=O)NCC3 [AnnH19, 7-methoxy-2,3,4,9-tetrahydro-1H-pyrido[3,4-b]indol-1-one] | – | 122 | > 90 | –
CCCCn1c2c(C)nccc2c2ccc(OC)c(Br)c21 [AnnH9, 8-Bromo-9-butyl-7-methoxy-1-methyl-9H-pyrido[3,4-b]indole] | 8 | 96 | – | –
COc1ccc2c(c1)[nH]c1c(Cl)nccc12 [AnnH24, 1-chloro-7-methoxy-9H-pyrido[3,4-b]indole] | – | – | 17 | remaining activity at 1 µM (human recombinant MAO-A): 103%
COc1ccc2c([nH]c3c(C)nccc32)c1Cl [AnnH6_1, 8-chloro-7-methoxy-1-methyl-9H-pyrido[3,4-b]indole] | 16 | 97 | – | –
COc1c(Cl)cc2c([nH]c3c(C)nccc32)c1Cl [AnnH6_3_1] | 64 | 99 | – | –

Now from value to compound, other results behind:

remaining activity at 1 µM (human recombinant MAO-A; [3]) [%] | remaining activity at 1 µM [1, 3] [%] | remaining activity at 1 µM [2] [%] | Compound | also measured
78 | 26 | 71 | CCOC(=O)Cn1c2c(C)nccc2c2ccc(Cl)c(Cl)c21 [AnnH66, Ethyl 2-(7,8-Dichloro-1-methyl-9H-pyrido[3,4-b]-9-yl)acetate] | –
114 | 22 | 44 | COc1ccc2c3ccnc(C)c3n(CCC#N)c2c1 [AnnH42, 3-(7-Methoxy-1-methyl-9H-pyrido[3,4-b]indol-9-yl)propanenitrile] | –
112 | 12 | 46 | C#CCn1c2cc(OC)ccc2c2ccnc(Cl)c21 [AnnH74, 1-Chloro-7-methoxy-9-(prop-2-yn-1-yl)-9H-pyrido[3,4-b]indole] | –
97 | 33 | 78 | COc1ccc2c3ccnc(C)c3n(CCN3CCCCC3)c2c1 [AnnH57, 7-Methoxy-1-methyl-9-[2-(piperidin-1-yl)ethyl]-9H-pyrido[3,4-b]indole] | –
130 | 75 | 78 | COc1ccc2c3ccnc(C)c3n(CC(=O)N(C)C)c2c1 [AnnH34, 2-(7-Methoxy-1-methyl-9H-pyrido[3,4-b]indol-9-yl)-N,N-dimethylacetamide] | –
112 | 35 | 96 | CCOC(=O)Cn1c2cc(OC)ccc2c2ccnc(Cl)c21 [AnnH76, Ethyl 2-(1-Chloro-7-methoxy-9H-pyrido[3,4-b]indol-9-yl)acetate] | –
137 | 47 | 52 | CCOC(=O)Cn1c2cc(OC)ccc2c2ccnc(CC)c21 [AnnH88, Ethyl 2-(1-ethyl-7-methoxy-9H-pyrido[3,4-b]indol-9-yl)acetate] | –
19 | 59 | 62 | COc1ccc2c3ccnc(C)c3n(Cc3ccncc3)c2c1 [AnnH36, 7-Methoxy-1-methyl-9-(pyridin-4-yl-methyl)-9H-pyrido[3,4-b]indole] | –
122 | 17 | 34 | C#CCn1c2c(C)nccc2c2ccc(Cl)c(Cl)c21 [AnnH67, 7,8-Dichloro-1-methyl-9-(prop-2-yn-1-yl)-9H-pyrido[3,4-b]indole] | –
19 | 30 | 15 | COc1ccc2c3ccnc(C)c3n(C(C)=O)c2c1 [AnnH59, 1-(7-Methoxy-1-methyl-9H-pyrido[3,4-b]indol-9-yl)ethan-1-one] | –
125 | 91 | 84 | COc1ccc2c3ccnc(C)c3n(Cc3ccc4ccccc4c3)c2c1 [AnnH39, 7-Methoxy-1-methyl-9-(2-naphthylmethyl)-9H-pyrido[3,4-b]indole] | –

From PMC7765920 (Molecules, 2020)
